{
  "source": "patent US20230372282A1",
  "about": "“METHOD FOR TREATEING OR […] OPTIC NEUROPATHY” (TZU CHI UNIVERSITY, priority 2022, published 2023)",
  "key": {"[1]": {"system": "RGC layer", "test": "TUNEL assay of apoptotic cells in the RGC layer", "assay_type": "in vivo, rat", "conditions": "rAION rats, BP 10 mg/kg i.p. 7 days; PBS group 11.2±2.8, sham 2.8±1.9", "procedure": "(§1) Adult male Wistar rats of 4 to 6 weeks of age (weighing 100-125 g) were used in the animal model of ischemic optic neuropathy and were divided into three groups: the sham group, the group administered with PBS following ischemic optic neuropathy injury, and the group with ischemic optic neuropathy injury accompanied by intraperitoneal injection of BP at 10 mg/kg for 7 consecutive days. The rats were housed in an animal room having a 12-hour light/dark cycle (the light cycle time is from 7 a.m. to 7 p.m.) with temperature controlled at 23° C. and humidity controlled at 55%, and supplied with filtered sterilized water and general rodent feed. During the experiment, general anesthesia of rats was performed by intramuscular injection of ketamine at 100 mg/kg and xylazine at 10 mg/kg. Local anesthesia was performed by using 0.5% Alcaine, and mydriasis was performed by administering Mydrin-P. To sacrifice the rats, carbon dioxide at a filling rate of 5 L/min was injected so that the volume of carbon dioxide was 20% of that of the cage, thereby achieving the main goal of reducing animal suffering. […]\nApoptotic cells in the ganglion cell layer (GCL) were detected using TUNEL assay according to the manufacturer's protocol. TUNEL-positive cells were calculated manually based on at least 6 retinal sections per eyeball in three groups (n=6 for each group). […]"}, "[2]": {"system": "NF-κB signaling pathway", "test": "Western blotting of retinal protein, NF-κB-related pathway", "assay_type": "in vivo", "conditions": "rat retina, rAION, compared with AION+PBS group", "procedure": "(§2) Adult male Wistar rats of 4 to 6 weeks of age (weighing 100-125 g) were used in the animal model of ischemic optic neuropathy and were divided into three groups: the sham group, the group administered with PBS following ischemic optic neuropathy injury, and the group with ischemic optic neuropathy injury accompanied by intraperitoneal injection of BP at 10 mg/kg for 7 consecutive days. The rats were housed in an animal room having a 12-hour light/dark cycle (the light cycle time is from 7 a.m. to 7 p.m.) with temperature controlled at 23° C. and humidity controlled at 55%, and supplied with filtered sterilized water and general rodent feed. During the experiment, general anesthesia of rats was performed by intramuscular injection of ketamine at 100 mg/kg and xylazine at 10 mg/kg. Local anesthesia was performed by using 0.5% Alcaine, and mydriasis was performed by administering Mydrin-P. To sacrifice the rats, carbon dioxide at a filling rate of 5 L/min was injected so that the volume of carbon dioxide was 20% of that of the cage, thereby achieving the main goal of reducing animal suffering.\n(§3) Firstly, under local anesthesia, rats were administrated with Alcaine and Mydrin-P eye drops to induce mydriasis. Subsequently, the rats were intravenously injected with rose bengal (2.5 mM dissolved in PBS at pH 7.4) at 1 mL/kg, and immediately irradiated with 12 pulses (once per second) of argon green laser (wavelength: 532 nm, size: […], power: 80 mW) to excite various parts of the optic disc. In addition, the laser was focused on the optic disc by an ophthalmoscope. Then, Tobradex eye ointment was applied evenly to the rats' eyes. Finally, the physical health of the rats was taken care of daily until the end of the study.\nThe detailed process of Western blotting process was described in the inventors' previous articles Cell Death Dis. 2017, 8, e3172 and Nat. Med. 2015, 21, 677-687. The total protein of the rat retina was extracted with modified radio immunoprecipitation assay (RIPA) buffer, and the protein concentrations were analyzed using the bicinchoninic acid (BCA) protein assay kit. […] The protein signal on the membrane was detected using an enhanced chemiluminescence (ECL) kit. The signal strength of the bands was quantified using ImageJ software.\nPrevious studies have pointed out that the upregulation of reactive oxygen species (ROS) in ischemic injury induces inflammatory response through the IκBα-NF-κB signaling pathway. Here, protein expression of the NF-κB-related pathway was evaluated to investigate the molecular mechanisms involved in the protection of nerves by administration of BP. […]"}, "[3]": {"system": "retinal ganglion cells (RGCs)", "test": "Retrograde labeling of RGCs with FluoroGold: RGC density and survival after AION induction", "assay_type": "in vivo, rat", "procedure": "as §2, §3\nRetrograde labeling was performed three weeks after the rats were AION induced. […] One week after labeling, the rats were sacrificed and the eyeballs were carefully removed from the […] and fixed in 10% formalin for 2 hours. The entire retina was placed flat on a slide and paired with a filter set (excitation filter: 350-400 nm; radiation filter: 515 nm) and observed for morphology under a fluorescence microscope. The region with a radius of 1 mm from the center of the retina is defined as the central region, and the region with a radius of 3 mm from the center is defined as the mid-peripheral region. Ten blocks (38,250 μm^2; 225 μm×170 μm) were randomly selected from the central region and the mid-peripheral region to estimate the density of RGCs to determine the survival rate of RGCs.\nTo investigate the effect of BP on RGC survival rates after AION induction, retrograde labeling was carried out using Fluorogold (FG). […]"}, "[4]": {"system": "rAION model", "test": "Optical coherence tomography (OCT) imaging of optic nerve width and RNFL after AION induction", "assay_type": "in vivo, rat", "conditions": "BP 10 mg/kg i.p.", "procedure": "as §2, §3\nOn days 1, 3, 7, 14, and 28 after AION induction, the optic nerve width (ONW) and the coherence tomography image of the retinal nerve fiber layer (RNFL) were obtained using a Micron IV retinal microscope. The vertical resolution and horizontal resolution of the imaging system were set to be 1.8 μm and 3 μm, respectively, to provide a 3.2 mm field of view and 1.2 mm depth of field for the retina. The cornea was moistened with Methocel 2%. The Micron eyepiece was glued to be in direct contact with the eye. To allow vertical light penetration through the cornea, the retinal nerve fiber layer and the Bruch's membrane opening (ONW) were imaged with circular and linear scans, respectively, with an average of 50 frames per scan.\nThe optic nerve width (ONW) and retinal nerve fiber layer (RNFL) thickness were measured on days 1, 3, 7, 14, and 28 using optical coherence tomography (OCT) imaging in the sham group, PBS-treated group, and BP-treated group. As shown in FIG. 5A and FIG. 5B, after AION induction, optic disc swelling can clearly observed in the acute onset stage, and it was improved by administration of BP on days 3, 7 and 28 (311.95±23.21 μm vs. 469.58±29.35 μm, 259.35±33.73 μm vs. 329±25.73 μm, 273.71±23.22 μm vs. 300.73±26.41 μm, respectively). Compared with the PBS-treated group, BP was efficient in maintaining the area of the RNFL (0.089±0.0027 mm^2 vs. 0.08±0.0028 mm^2, 0.074±0.0089 mm^2 vs. 0.047±0.0042 mm^2 respectively) on days 14 and 28."}, "[5]": {"system": "CNPase", "test": "Immunohistochemistry of CNPase in the optic nerve (myelin integrity)", "assay_type": "in vivo, rat", "conditions": "rAION rats, BP 10 mg/kg i.p. 7 days; after AION induction 4.24±0.71, sham 11.06±2.60", "procedure": "as §1, with “mg/kg.” for “mg/kg. Local anesthesia was performed by using 0.5% Alcaine, and mydriasis was performed by administering Mydrin-P. To sacrifice the rats, carbon dioxide at a filling rate of 5 L/min was injected so that the volume of carbon dioxide was 20% of that of the cage, thereby achieving the main goal of reducing animal suffering.”\n(§4) First, vertical-sections of the ON were blocked with 2% bovine serum albumin (BSA) containing 0.3% triton X-100 for 1 hour. […] Fluorescence photographs of the sections of the ON tissue were taken at 10× magnification and 20× magnification using the Zeiss LSM 900 confocal system. The 20× magnified image of ED1^+ cells was analyzed using ImageJ software for quantification of exogenous macrophages. […]"}, "[6]": {"system": "ED1+ macrophages", "test": "Immunohistochemistry of ED1+ macrophage infiltration in the optic nerve", "assay_type": "in vivo, rat", "conditions": "rAION rats, BP 10 mg/kg i.p. 7 days; PBS group 166.4±19.3, sham 8.7±4.8", "procedure": "as §1, with “mg/kg.” for “mg/kg. Local anesthesia was performed by using 0.5% Alcaine, and mydriasis was performed by administering Mydrin-P. To sacrifice the rats, carbon dioxide at a filling rate of 5 L/min was injected so that the volume of carbon dioxide was 20% of that of the cage, thereby achieving the main goal of reducing animal suffering.”\nas §4"}, "[7]": {"system": "rAION model", "test": "Flash visual evoked potential (FVEP), P1-N2 amplitude after AION induction", "assay_type": "in vivo, rat", "conditions": "28 days after AION induction, BP 10 mg/kg i.p. 7 days; PBS group 13.70±5.59, sham 33.63±8.30", "procedure": "as §1, with “mg/kg.” for “mg/kg. Local anesthesia was performed by using 0.5% Alcaine, and mydriasis was performed by administering Mydrin-P. To sacrifice the rats, carbon dioxide at a filling rate of 5 L/min was injected so that the volume of carbon dioxide was 20% of that of the cage, thereby achieving the main goal of reducing animal suffering.”\nTwenty-eight days after AION induction, electrodes were implanted into the primary visual cortex (anteroposterior: −8 mm; dorsoventral: ±3 mm) and frontal cortex (anteroposterior: +1 mm), while a ground electrode was implanted in the tail. […] The general visual function was evaluated by P1-N2 amplitude. […]"}, "[8]": {"conditions": "rodent model of NAION, BP 10 mg/kg i.p. 7 days"}},
  "data": [
    {"smiles": "CCC/C=C1\\OC(=O)c2ccccc21", "note": "[BP, n-butylidenephthalide]", "values": [
      {"measurement": "TUNEL-positive cells in the RGC layer per high powered field (HPF)", "setting": "[1]", "value": "3.7±1.5"},
      {"measurement": "expression of IL-1β", "setting": "[2]", "value": "reduced expression"},
      {"measurement": "expression of NLRP3", "setting": "[2]", "value": "reduced expression"},
      {"measurement": "phosphorylation of IκBα (phospho-IκBα expression level)", "setting": "[2]", "value": "significantly inhibited phosphorylation"},
      {"measurement": "phosphorylation of NF-κB (phospho-NF-κB expression level)", "setting": "[2]", "value": "significantly inhibited phosphorylation"},
      {"measurement": "density of RGCs in the central retina", "setting": "[3]; rAION Wistar rats, BP 10 mg/kg intraperitoneal for 7 consecutive days, FluoroGold labeling 3 weeks after induction, sacrifice 1 week later, PBS group 935±514, sham 2771±453", "value": "2172±458", "unit": "RGCs per mm^2"},
      {"measurement": "density of RGCs in the mid-peripheral retina", "setting": "[3]; rAION Wistar rats, BP 10 mg/kg intraperitoneal for 7 consecutive days, PBS group 750±452, sham 2236±487", "value": "1962±505", "unit": "RGCs per mm^2"},
      {"measurement": "improvement of RGC survival rate in the central retina", "setting": "[3]; [8]", "value": 44.7, "unit": "%"},
      {"measurement": "improvement of RGC survival rate in the mid-peripheral retina", "setting": "[3]; [8]", "value": 54.2, "unit": "%"},
      {"measurement": "optic nerve width (ONW)", "setting": "[4]; day 3 after AION induction, vs. 469.58±29.35 PBS group", "value": "311.95±23.21", "unit": "μm"},
      {"measurement": "optic nerve width (ONW)", "setting": "[4]; day 7 after AION induction, vs. 329±25.73 PBS group", "value": "259.35±33.73", "unit": "μm"},
      {"measurement": "area of the RNFL", "setting": "[4]; day 14 after AION induction, vs. 0.08±0.0028 PBS group", "value": "0.089±0.0027", "unit": "mm^2"},
      {"measurement": "area of the RNFL", "setting": "[4]; day 28 after AION induction, vs. 0.047±0.0042 PBS group", "value": "0.074±0.0089", "unit": "mm^2"},
      {"measurement": "optic nerve width (ONW)", "setting": "[4]; day 28 after AION induction, vs. 300.73±26.41 PBS group", "value": "273.71±23.22", "unit": "μm"},
      {"measurement": "expression of CNPase in the optic nerve (IHC signal)", "setting": "[5]", "value": "7.20±1.22"},
      {"measurement": "ED1-positive cells in the optic nerve per high powered field", "setting": "[6]", "value": "80.1±28.9"},
      {"measurement": "FVEP P1 to N2 amplitude", "setting": "[7]", "value": "22.01±7.03", "unit": "μV"}
    ]}
  ]
}
